Data on 1 molecule can be found in PMC2229062 (The Journal of General Physiology, 1991).

Usually IC50 stands for the concentration that gives 50% inhibition. The low end stands for greater potency in that assay, the high end for weaker potency in that assay.

This assay has as its system GK (G protein coupled to the muscarinic K+ channel IK.ACh). In words: inside-out patch clamp, inhibition of GTP-induced IK.ACh openings, Hill fit. Type of assay: biochemical, Cavia porcellus. As to conditions: no agonist; against 10 µM GTP; same; assumed competitive with GTP. In general terms: In patch-clamp work, channel activity is measured electrically.

As for `Nc1nc2c(ncn2[C@@H]2O[C@H](COP(=O)(O)OP(=O)(O)O)[C@@H](O)[C@H]2O)c(=O)[nH]1` [GDP], the IC50 came out at 510 nM.
